# In patent US6218438A, “Copolymer compositions for treating viral infections” (Supratek Pharma, Inc., priority 1999, dated 2001):
# Columns and labels:
# [1] = target: T1, HIV-1 reverse transcriptase (p51/p66 RT), RNAse H activity (Human immunodeficiency virus type 1 group M subtype B, UniProt P03366); assay: Inhibition of RNAse H activity of RT; assay type: biochemical
# T1 construct: 10 ng of p51/p66 heterodimeric RT per assay were used
# Protocol: BBNH and Fe(III)-BBNH complex at various concentrations were examined for the ability to inhibit RNA dependent and DNA dependent DNA polymerase activities as well as RNAse H activity of HIV-1 reverse transcriptase (RT RDDP, RT DDDP, and RT RNAse H, respectively). To analyze RT RDDP and RT DDDP the following reaction mixture (100 μl total volume) was used: 50 mM Tris-HCl (pH 7.8), 60 mM KCl, 10 mM MgCl2, 10 ng of p51/p66 RT, 0.1-0.5 units of template/primer, and 0.5-25 μM [^3 H]dNTP. Aliquots of the test compounds dissolved in DMSO were added to the reaction mixtures, incubated for 10-20 min. at 37° C. and than quenched with 500 μl of cold 20 mM sodium pyrophosphate in 10% dichloroacetic acid. After 10 min. on ice, the samples were filtered on Whatman 934-AH glass fiber filters and washed with 10% dichloroacetic acid and ethanol, and the radioactivity was determined by liquid scintillation analysis. To analyze RT RNAse H the following reaction mixture (50 μl total volume) was used: 5OmM Tris-HCl (pH 8.0), 60 mM KCl, 8 mM MgCl2, and variable amounts of ([^3 H]rG)-poly(dC). Generally, 10 ng of p51/p66 heterodimeric RT per assay were used. Aliquots of the test compounds dissolved in DMSO were added to the reaction mixtures, incubated for 20 min. at 37° C. and than quenched by placing the tubes on ice followed by the addition of 100 μl of cold 7% perchloric acid. After 10 min. on ice, the samples were centrifuged at 12,000 g for 15 min. 100 μl of the supernatants were carefully removed, and the radioactivity was determined by liquid scintillation analysis.
# [2] = Solubility of Fe(III)BBNH in water and organic solvents; assay type: physicochemical; settings: room temperature, 180 min
# Protocol: One mg of Fe(III)BBNH was dissolved in 1 ml of dimethyl sulfoxide (DMSO). Aliquots of the solution were further diluted with DMSO to achieve the following final concentrations: […]. Each concentration point of was prepared in triplicates. The aliquots […] of the samples were transferred in 96-well plate. The optical densities (OD) at […] of all the samples were measured by using Microplate Reader.
# The samples of Fe(III)BBNH (1 mg each) were placed in 1 ml of the following solvents:
# The samples were intensively agitated during three hours at room temperature using a rotator. After that the samples were centrifuged at 10,000 g for 10 minutes. The supernatants (500 μl each) were separated and then were dried by using a speed-vac centrifuge. Each sample was then dissolved in 500 μl DMSO and aliquots (50 μl each) were transferred to 96-well plate. The optical densities were determined at λ400 nm for using microplate reader. Concentrations of the test compound in the samples were then determined by using the above shown calibration data. Each concentration of the test compound was measured in triplicates.
# [3] = Solubility of Fe(III)BBNH in organic solutions with various salts and pH; assay type: physicochemical
# Protocol: The samples of Fe(III)BBNH (1 mg of each) were placed in 1 ml of following range of solvents:
# The samples were intensively agitated during three hours at room temperature using a rotator. After that the samples were centrifuged at 10,000 g for 10 min. The supernatants (500 μl each) were separated and then dried by using a speed-vac centrifuge. Each sample was dissolved in 500 μl DMSO and the aliquots (50 μl each) were transferred to 96-well plate. The optical densities were determined at λ400 nm using a microplate reader. Fe(III)BBNH concentrations in the samples were then determined by using the calibration shown in Example 4A. Each concentration of Fe(III)BBNH was analyzed in triplicates.
# [4] = Water solubility of Fe(III)BBNH in various Pluronic solutions; assay type: physicochemical; settings: 180 min
# Protocol: The samples of Fe(III)BBNH (1 mg of each) were placed in 1 ml of various water solutions of Pluronics. The samples were intensively agitated during three hours at room temperature using a rotator. The samples were then centrifuged at 10,000g for 10 min. The supernatants (500 μl each) were separated and then dried using a speed-vac centrifuge. Each sample was dissolved in 500 μl DMSO and aliquots (50 μl each) were transferred to 96-well plate. The optical densities were determined at λ400 nm using a microplate. The test compound concentrations in the samples were then determined by using the calibration shown in Example 4A. Each concentration of Fe(III)BBNH was analyzed in triplicates. Each concentration of Fe306 was measured in triplicates.
# [5] = test system: cells; assay: Cytotoxicity (general statement); assay type: cell-based
structure (smiles),measurement,setting,value
CC(C)(C)c1ccc(C(=O)NN=Cc2c(O)ccc3ccccc23)cc1.C[O-].[Cl-].[Cl-].[Fe+3] [Fe(III)-BBNH],IC50,[1]; 10 min. preincubation,500 ± 70 nM
same,"Ratio BBNH/Fe(III)-BBNH (IC50), RT RNase H",[1]; 10 min. preincubation,7
same,IC50,[1]; No preincubation,900 ± 500 nM
same,"Ratio BBNH/Fe(III)-BBNH (IC50), RT RNase H",[1]; No preincubation,> 50
same,Solubility of Fe(III)BBNH dissolved in the sample,[2]; Acetonitrile 100%,163.6 µg/mL
same,Solubility of Fe(III)BBNH dissolved in the sample,[2]; Acetonitrile: 10% H2O,491.4 µg/mL
same,Solubility of Fe(III)BBNH dissolved in the sample,[2]; Acetonitrile: 20% H2O,293.9 µg/mL
same,Solubility of Fe(III)BBNH dissolved in the sample,[2]; DMFA 100%,1000.2 µg/mL
same,Solubility of Fe(III)BBNH dissolved in the sample,[2]; DMSO 100%,1001.4 µg/mL
same,Solubility of Fe(III)BBNH dissolved in the sample,[2]; Methanol 100%,505.6 µg/mL
same,Solubility of Fe(III)BBNH dissolved in the sample,[2]; Methanol: 10% H2O,206.7 µg/mL
same,Solubility of Fe(III)BBNH dissolved in the sample,[2]; Water 100%,< 0.001 µg/mL
same,Concentration of Fe306 dissolved in the sample,[3]; Acetonitrile:10% Ammonium Acetate (0.01 M) pH 3.0,125.7 µg/mL
same,Concentration of Fe306 dissolved in the sample,"[3]; Acetonitrile:10% Ammonium Acetate (0.01 M) pH 5.0, 180 min",223.9 µg/mL
same,Concentration of Fe306 dissolved in the sample,"[3]; Acetonitrile:10% Ammonium Acetate (0.01 M) pH 7.0, 180 min",304.7 µg/mL
same,Concentration of Fe306 dissolved in the sample,[3]; Acetonitrile:10% Ammonium Formate (0.01 M) pH 3.0,172.9 µg/mL
same,Concentration of Fe306 dissolved in the sample,"[3]; Acetonitrile:10% Ammonium Formate (0.01 M) pH 5.0, 180 min",233.6 µg/mL
same,Concentration of Fe306 dissolved in the sample,"[3]; Acetonitrile:10% Ammonium Formate (0.01 M) pH 6.2, 180 min",200.1 µg/mL
same,Concentration of Fe306 dissolved in the sample,[3]; Methanol:10% 0.01 M phosphate buffer pH 3.0,14.4 µg/mL
same,Concentration of Fe306 dissolved in the sample,"[3]; Methanol:10% 0.01 M phosphate buffer pH 5.0, 180 min",14.9 µg/mL
same,Concentration of Fe306 dissolved in the sample,[3]; Methanol:10% Ammonium Acetate (0.01 M) pH 3.0,26.2 µg/mL
same,Concentration of Fe306 dissolved in the sample,"[3]; Methanol:10% Ammonium Acetate (0.01 M) pH 5.0, 180 min",76.6 µg/mL
same,Concentration of Fe306 dissolved in the sample,"[3]; Methanol:10% Ammonium Acetate (0.01 M) pH 7.0, 180 min",94.4 µg/mL
same,Concentration of Fe306 dissolved in the sample,[3]; Methanol:10% Ammonium Formate (0.01 M) pH 3.0,50.9 µg/mL
same,Concentration of Fe306 dissolved in the sample,"[3]; Methanol:10% Ammonium Formate (0.01 M) pH 5.0, 180 min",43.4 µg/mL
same,Concentration of Fe306 dissolved in the sample,"[3]; Methanol:10% Ammonium Formate (0.01 M) pH 6.2, 180 min",31.2 µg/mL
same,Solubility of Fe(III)BBNH,[4]; Pluronic F87 (2% w/v) in water,992.5 µg/mL
same,Solubility of Fe(III)BBNH,[4]; Pluronic F108 (2% w/v) in water,86.5 µg/mL
same,Solubility of Fe(III)BBNH,[4]; Pluronic F127 (2% w/v) in water,113.6 µg/mL
same,Solubility of Fe(III)BBNH,[4]; Pluronic L44 (2% w/v) in water,986.8 µg/mL
same,Solubility of Fe(III)BBNH,[4]; Pluronic L61 (1% w/v) in water,3.5 µg/mL
same,Solubility of Fe(III)BBNH,[4]; Pluronic L64 (2% w/v) in water,996.6 µg/mL
same,Solubility of Fe(III)BBNH,[4]; Pluronic L81 (2% w/v) in water,175.3 µg/mL
same,Solubility of Fe(III)BBNH,[4]; Pluronic P84 (1% w/v) in water,987.2 µg/mL
same,Solubility of Fe(III)BBNH,[4]; Pluronic P85 (1% w/v) in water,998.3 µg/mL
same,Solubility of Fe(III)BBNH,[4]; Pluronic P123 (2% w/v) in water,125.7 µg/mL
same,cytotoxicity,[5],virtually no cytotoxicity
